Test results: US7598237B2 (Wyeth, priority 2004, dated 2009)

Tests used:
[1] = target: T1, progesterone receptor (PR) (Homo sapiens, UniProt P06401); experiment: T47D cell alkaline phosphatase assay; type: cell-based; conditions: T47D cells; antagonist mode, in the presence of 1 nM progesterone; first TABLE 2; read-out: Alk. Phos. IC50
T1 construct: effect on alkaline phosphatase activity in T47D cells; endogenous in cells; host or cells: T47D cells
T1 sequence (P06401 1-933): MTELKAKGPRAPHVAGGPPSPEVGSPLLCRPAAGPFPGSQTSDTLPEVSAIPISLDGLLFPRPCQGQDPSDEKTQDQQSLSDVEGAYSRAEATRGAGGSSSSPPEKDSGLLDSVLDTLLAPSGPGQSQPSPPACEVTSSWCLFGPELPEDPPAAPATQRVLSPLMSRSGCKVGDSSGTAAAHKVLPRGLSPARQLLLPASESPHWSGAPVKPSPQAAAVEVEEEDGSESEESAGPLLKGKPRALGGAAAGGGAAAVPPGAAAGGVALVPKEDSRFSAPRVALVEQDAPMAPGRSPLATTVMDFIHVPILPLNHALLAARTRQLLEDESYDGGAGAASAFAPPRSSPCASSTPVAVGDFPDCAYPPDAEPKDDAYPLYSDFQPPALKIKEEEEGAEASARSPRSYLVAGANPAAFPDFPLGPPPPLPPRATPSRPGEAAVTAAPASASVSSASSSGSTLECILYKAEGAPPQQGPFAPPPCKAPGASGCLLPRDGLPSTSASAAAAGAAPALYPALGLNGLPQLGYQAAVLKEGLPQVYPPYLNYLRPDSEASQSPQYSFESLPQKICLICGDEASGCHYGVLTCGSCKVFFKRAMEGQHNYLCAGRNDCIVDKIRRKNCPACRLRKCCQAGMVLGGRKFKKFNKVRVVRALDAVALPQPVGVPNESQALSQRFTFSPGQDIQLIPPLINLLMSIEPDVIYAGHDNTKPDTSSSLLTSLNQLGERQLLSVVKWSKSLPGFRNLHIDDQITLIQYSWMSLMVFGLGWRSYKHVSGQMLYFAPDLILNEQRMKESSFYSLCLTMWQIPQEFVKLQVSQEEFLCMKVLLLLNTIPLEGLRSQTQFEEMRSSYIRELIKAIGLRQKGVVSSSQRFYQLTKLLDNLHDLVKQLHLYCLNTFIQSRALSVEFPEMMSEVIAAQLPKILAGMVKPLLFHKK
Description: (4) T47D Cell Alkaline Phosphatase Assay
To identify progestins or antiprogestins by determining a compound's effect on alkaline phosphatase activity in T47D cells.
DMEM:F12 (1:1) (GIBCO, BRL) supplemented with 5% (v/v) charcoal stripped fetal bovine serum (not heat-inactivated), 100 U/ml penicillin, […], and 2 mM GlutaMax (GIBCO, BRL).
I. 0.1 M Tris-HCl, pH 9.8, containing 0.2% Triton X-100
II. 0.1 M Tris-HCl, pH 9.8 containing 4 mM p-nitrophenyl phosphate (Sigma).
Frozen T47D cells were thawed in a 37° C. water bath and diluted to 280,000 cells/ml in culture medium. To each well in a 96-well plate (Falcon, Becton Dickinson Labware), 180 μl of diluted cell suspension was added. Twenty μl of reference or test compounds diluted in the culture medium was then added to each well. […] The cells were incubated at 37° C. in a 5% CO2/humidified atmosphere for 24 hr.
Note: For high throughput screening, one concentration of each compound was tested at 0.3 mg/ml. Based on an average molecular weight of 300 g/mol for the compounds in the library, the concentration was approximately 1 mM. […] Alkaline Phosphatase Enzyme Assay: […]
For reference and test compounds, a dose response curve was generated for dose (X-axis) vs. the rate of enzyme reaction (slope) (Y-axis). […] EC50 or IC50 values were calculated from the retransformed values. […]

| SMILES | melting point [°C] | IC50 [1] [nM] |
| --- | --- | --- |
| CC1(C)OCC(=O)Nc2ccc(-c3cc(F)cc(C#N)c3)cc21 [Compound 3, 3-(5,5-dimethyl-2-oxo-1,2,3,5-tetrahydro-4,1-benzoxazepin-7-yl)-5-fluorobenzonitrile] | 238 to 239 |  |
| Cn1c(C#N)ccc1-c1ccc2c(c1)C(c1cccs1)(c1cccs1)OCC(=O)N2 [Compound 14, 1-Methyl-5-(2-oxo-5,5-dithien-2-yl-1,2,3,5-tetrahydro-4,1-benzoxazepin-7-yl)-1H-pyrrole-2-carbonitrile] |  | 11.3 |
| CCC1(c2cccs2)OCC(=O)Nc2ccc(-c3ccc(F)c(C#N)c3)cc21 (centres unmarked) [Example 139, 5-(5-Ethyl-2-oxo-5-thien-2-yl-1,2,3,5-tetrahydro-4,1-benzoxazepin-7-yl)-2-fluorobenzonitrile] | 197 to 199 |  |
| Cn1c(C#N)ccc1-c1ccc2c(c1)C(C)(c1cccs1)OCC(=O)N2 (centres unmarked) [Compound 6, 1-Methyl-5-[5-methyl-2-oxo-5-(2-thienyl)-1,2,3,5-tetrahydro-4,1-benzoxazepin-7-yl]-1H-pyrrole-2-carbonitrile] | 197 to 198 |  |
| CCC1(c2cccs2)OCC(=O)Nc2ccc(-c3ccc(C#N)n3C)cc21 (centres unmarked) [Compound 19, 5-(5-Ethyl-2-oxo-5-thien-2-yl-1,2,3,5-tetrahydro-4,1-benzoxazepin-7-yl)-1-methyl-1H-pyrrole-2-carbonitrile] |  | 14.6 |

Other lines, results leading:

| melting point [°C] | IC50 [1] [nM] | SMILES |
| --- | --- | --- |
| 99 to 100 |  | CCC1(c2cccs2)OCC(=O)Nc2ccc(-c3coc(C#N)c3)cc21 (centres unmarked) [Example 141, 4-(5-Ethyl-2-oxo-5-thien-2-yl-1,2,3,5-tetrahydro-4,1-benzoxazepin-7-yl)-2-furonitrile] |
| 182 to 184 |  | CCC1(c2cccs2)OCC(=O)Nc2ccc(-c3sc(C#N)cc3C)cc21 (centres unmarked) [Example 140, 5-(5-Ethyl-2-oxo-5-thien-2-yl-1,2,3,5-tetrahydro-4,1-benzoxazepin-7-yl)-4-methylthiophene-2-carbonitrile] |
| 202 to 204 |  | CCC1(c2cccs2)OCC(=O)Nc2ccc(-c3csc(C#N)c3)cc21 (centres unmarked) [Example 143, 4-(5-Ethyl-2-oxo-5-thien-2-yl-1,2,3,5-tetrahydro-4,1-benzoxazepin-7-yl)thiophene-2-carbonitrile] |
